Five molecules from patent US5045544A, “N'-alkyl-spiro-isoquinoline-pyrrolidine tetrones and analogs thereof useful as aldose reductase inhibitors” (American Home Products Corporation, priority 1990, dated 1991) can be followed below.

SMILES strings stand for the structures.

One test deals with T1, aldose reductase (Bos taurus, UniProt P16116).
T1 construct: preparation of the enzyme from bovine lens; from tissue; host or cells: bovine lens
As to the kind of experiment: in vitro aldose reductase inhibition (modified Hayman and Kinoshita procedure, enzyme from bovine lens). It is filed as biochemical. The note with it: for inhibition at 1 µM: 10^-6 M; for inhibition at 10 µM: 10^-5 M. The procedure: (§1) (c) The polyol determination was performed by a modification of the procedure of M. Kraml and L. Cosyns, Clin. Biochem., 2, 373 (1969). Only two minor reagent changes were made: (a) the rinsing mixture was an aqueous 5% (w/v) trichloroacetic acid solution and (b) the stock solution was prepared by dissolving 25 mg of dulcitol in 100 ml of an aqueous trichloroacetic acid solution. [N.B.: For each experiment the average value found in the tissue from rats fed the glucose diet was substracted from the individual values found in the corresponding tissue in galactose-fed rats to obtain the amount of polyol accumulated.] The aldose reductase inhibiting effects of the compounds of formula (I) were also tested by employing an in vitro testing procedure similar to that described by S. Hayman and J. H. Kinoshita, J. Biol. Chem., 240, 877 (1965). In the present case the procedure of Hayman and Kinoshita was modified in that the final chromatography step was omitted in the preparation of the enzyme from bovine lens.

The next test has as its system diaphragm. As to the kind of experiment: dulcitol (galactitol) accumulation in the diaphragm of galactose-fed (galactosemic) rats. It is filed as in vivo, rat (Sprague-Dawley). The note with it: 4 days.
Excerpt: (§2) The aldose reductase inhibiting property of the compounds of this invention and the utilization of the compounds in preventing, diminishing and alleviating diabetic complications are demonstrable in experiments using galactosemic rats, see Dvornik et al., Science, 182, 1146 (1973). Such experiments are exemplified hereinbelow after the listing of the following general comments pertaining to these experiments:
(§3) (a) Four or more groups of six male rats, 50-70 g, Sprague-Dawley strain, were used. The first group, the control group, was fed a mixture of laboratory chow (rodent Laboratory Chow, Purina) and glucose at 20% (w/w %) concentration. An untreated galactosemic group was fed a similar diet in which galactose was substituted for glucose. The third group was fed a diet prepared by mixing a given amount of the test compound with the galactose containing diet. The concentration of galactose in the diet of the treated groups was the same as that for the untreated galactosemic group.
(§4) (b) After four days, the animals were killed by euthanization. Both the lens and sciatic nerve were removed, weighed and stored frozen for polyol determination.
as §1
(§5) The figures under L, N, and D represent the percentage decrease of dulcitol accumulation in the tissues of the lens, sciatic nerve, and diaphragm, respectively, for treated rats as compared to untreated rats.

Another test has as its system sciatic nerve. As to the kind of experiment: dulcitol (galactitol) accumulation in the sciatic nerve of galactose-fed (galactosemic) rats. It is filed as in vivo, rat (Sprague-Dawley). The note with it: 4 days.
Excerpt: as §2, §3, §4, §1, §5

The next test concerns lens. As to the kind of experiment: dulcitol (galactitol) accumulation in the lens of galactose-fed (galactosemic) rats. The format is in vivo, rat (Sprague-Dawley). The following applies: 10.2 mg/kg in diet, 4 days.
Excerpt: as §2, §3, §4
(c) The polyol determination was performed by a modification of the procedure of M. Kraml and L. Cosyns, Clin. Biochem., 2, 373 (1969). […]

As to `CCN1C(=O)CC2(C1=O)C(=O)N(Cc1nc3cc(C(F)(F)F)ccc3s1)C(=O)c1ccc(F)cc12` (centres unmarked) [R1=F, R4=C2 H5, R5=CF3, 1'-ethyl-6-fluoro-2-[[5-(trifluoromethyl)-2-benzothiazolyl]methyl]spiro[isoquinoline-4(1H),3'-pyrrolidine]-1,2',3,5'(2H)-tetrone], the inhibition at 1 µM against aldose reductase amounted to 0%. Further, the “% Lowering Galactitol Accumulation In Vivo, (%) D” value in the test on diaphragm (10 mg/kg/day in diet) was found to be 59%.
As to `CCN1C(=O)CC2(C1=O)C(=O)N(Cc1ccc(Br)cc1F)C(=O)c1ccc(F)cc12` (centres unmarked) [R1=F, R4=CH2 CH3, 2-[(4-bromo-2-fluorophenyl)methyl]-1'-ethyl-6-fluorospiro[isoquinoline-4(1H),3'-pyrrolidine]-1,2',3,5'(2H)-tetrone], the “% lowering dulcitol accumulation in vivo, % N” value in the test on sciatic nerve (0.5 mg/kg in diet) came out at 19%; in the test on sciatic nerve (1.0 mg/kg in diet), 74%. The inhibition at 10 µM against aldose reductase was 0%. The “% lowering dulcitol accumulation in vivo, % D” value in the test with diaphragm (0.5 mg/kg in diet) came to 65%; with diaphragm (1.0 mg/kg in diet) it was 84%.
Take `CCN1C(=O)CC2(C1=O)C(=O)N(Cc1ccc(Br)cc1F)C(=O)c1ccccc12` (centres unmarked) [R1=H, R4=CH2 CH3, 2-[(4-bromo-2-fluorophenyl)methyl]-1'-ethylspiro[isoquinoline-4(1H), 3'-pyrrolidine]-1,2',3,5'(2H)-tetrone]: the results for the “% lowering dulcitol accumulation in vivo, % N” value in the test on sciatic nerve (0.5 mg/kg in diet) and with sciatic nerve (0.9 mg/kg in diet) were 37% and 65%, respectively. Further, the inhibition at 10 µM against aldose reductase stood at 0%. The “% lowering dulcitol accumulation in vivo, % D” value is 56% in the test on diaphragm (0.5 mg/kg in diet) and 73% with diaphragm (0.9 mg/kg in diet).
Regarding `CN1C(=O)CC2(C1=O)C(=O)N(Cc1ccc(Br)cc1F)C(=O)c1ccccc12` (centres unmarked) [R1=H, R4=CH3, 2-[(4-bromo-2-fluorophenyl)methyl]-1'-methylspiro[isoquinoline-4(1H), 3'-pyrrolidine]-1,2',3,5'(2H)-tetrone], the “% lowering dulcitol accumulation in vivo, % N” value with sciatic nerve (0.5 mg/kg in diet) is 50%; in the test on sciatic nerve (1.1 mg/kg in diet), 76%; in the test on sciatic nerve (10.2 mg/kg in diet), 95%. The “% lowering dulcitol accumulation in vivo, % L” value in the test on lens is recorded as 31%. For the same molecule, at 10 µM the inhibition on aldose reductase was 0%. Also, the “% lowering dulcitol accumulation in vivo, % D” value was 61% in the test with diaphragm (0.5 mg/kg in diet), 75% with diaphragm (1.1 mg/kg in diet) and 94% in the test on diaphragm (10.2 mg/kg in diet).
As to `CN1C(=O)CC2(C1=O)C(=O)N(Cc1nc3cc(C(F)(F)F)ccc3s1)C(=O)c1ccccc12` (centres unmarked) [R1=H, R4=CH3, R5=CF3, 2-[[5-(trifluoromethyl)-2-benzothiazolyl]methyl]-1'-methylspiro[isoquinoline-4(1H),3'-pyrrolidine]-1,2',3,5'(2H)-tetrone], in the test on sciatic nerve (9.5 mg/kg/day in diet), the “% Lowering Galactitol Accumulation In Vivo, (%) N” value is listed as 82%. This molecule also registered an inhibition at 1 µM against aldose reductase of 0%. The “% Lowering Galactitol Accumulation In Vivo, (%) D” value in the test on diaphragm (9.5 mg/kg/day in diet) is 100%.

One may read the inhibition as the percentage by which the read-out fell short of the control. A lower inhibition goes with a response near the control.
